# Data from patent publication US20230266302A1, “SYNTHESIS AND USE OF N-BENZYL SULFONAMIDES” (THE UNIVERSITY OF TULSA, priority 2020, published 2023).
# Test system: PC3 (prostate cancer)
# Assay: ATP level assay (CellTiter-Glo), percent of control
# Type: cell-based
# Conditions: 2 h; compound alone, 100 uM, two hour incubation, control DMSO; read-out: POC (percent of control) PC3
row,SMILES,activity at 100 µM [%]
1,"Cc1ccc(S(=O)(=O)NCc2cnccn2)cc1 [Compound 16, 4-methyl-N-(pyrazin-2-ylmethyl)benzenesulfonamide]",109
2,"O=S(=O)(NCc1cncnc1)c1ccccc1 [Compound 15, N-(pyrimidin-5-ylmethyl)benzenesulfonamide]",109

# Same assay, conditions: compound 100 uM + 2DG (about 10-20 mM), two hour incubation
row,SMILES,POC (percent of control) PC3
1,"Cc1ccc(S(=O)(=O)NCc2cnccn2)cc1 [Compound 16, 4-methyl-N-(pyrazin-2-ylmethyl)benzenesulfonamide]",113.1% of control
2,"O=S(=O)(NCc1cncnc1)c1ccccc1 [Compound 15, N-(pyrimidin-5-ylmethyl)benzenesulfonamide]",117.6% of control

# Same assay, conditions: compound 100 uM + rotenone (approximately 1.25 μM), two hour incubation
row,SMILES,POC (percent of control) PC3
1,"Cc1ccc(S(=O)(=O)NCc2cnccn2)cc1 [Compound 16, 4-methyl-N-(pyrazin-2-ylmethyl)benzenesulfonamide]",95.1% of control
2,"O=S(=O)(NCc1cncnc1)c1ccccc1 [Compound 15, N-(pyrimidin-5-ylmethyl)benzenesulfonamide]",106.4% of control

# Test system: NCI-H196 (lung cancer)
# Assay: as above
# Type: cell-based
# Conditions: NCI-H196, 2 h; compound alone, 100 uM, two hour incubation, control DMSO; read-out: POC (percent of control) NCI-H196
row,SMILES,activity at 100 µM [%]
1,"Cc1ccc(S(=O)(=O)NCc2cnccn2)cc1 [Compound 16, 4-methyl-N-(pyrazin-2-ylmethyl)benzenesulfonamide]",110
2,"O=S(=O)(NCc1cncnc1)c1ccccc1 [Compound 15, N-(pyrimidin-5-ylmethyl)benzenesulfonamide]",92.3

# Same assay, conditions: compound 100 uM + 2DG (about 10-20 mM), two hour incubation
row,SMILES,POC (percent of control) NCI-H196
1,"Cc1ccc(S(=O)(=O)NCc2cnccn2)cc1 [Compound 16, 4-methyl-N-(pyrazin-2-ylmethyl)benzenesulfonamide]",99.2% of control
2,"O=S(=O)(NCc1cncnc1)c1ccccc1 [Compound 15, N-(pyrimidin-5-ylmethyl)benzenesulfonamide]",115.4% of control

# Same assay, conditions: compound 100 uM + rotenone (approximately 1.25 μM), two hour incubation
row,SMILES,POC (percent of control) NCI-H196
1,"Cc1ccc(S(=O)(=O)NCc2cnccn2)cc1 [Compound 16, 4-methyl-N-(pyrazin-2-ylmethyl)benzenesulfonamide]",97.6% of control
2,"O=S(=O)(NCc1cncnc1)c1ccccc1 [Compound 15, N-(pyrimidin-5-ylmethyl)benzenesulfonamide]",104.5% of control

# Test system: HeLa (cervical cancer)
# Assay: as above
# Type: cell-based
# Conditions: Homo sapiens, HeLa, 2 h; compound alone, 100 uM, two hour incubation, control DMSO; read-out: POC (percent of control) HeLa
row,SMILES,activity at 100 µM [%]
1,"Cc1ccc(S(=O)(=O)NCc2cnccn2)cc1 [Compound 16, 4-methyl-N-(pyrazin-2-ylmethyl)benzenesulfonamide]",96.8
2,"O=S(=O)(NCc1cncnc1)c1ccccc1 [Compound 15, N-(pyrimidin-5-ylmethyl)benzenesulfonamide]",103

# Same assay, conditions: compound 100 uM + 2DG (about 10-20 mM), two hour incubation
row,SMILES,POC (percent of control) HeLa
1,"Cc1ccc(S(=O)(=O)NCc2cnccn2)cc1 [Compound 16, 4-methyl-N-(pyrazin-2-ylmethyl)benzenesulfonamide]",106.8% of control
2,"O=S(=O)(NCc1cncnc1)c1ccccc1 [Compound 15, N-(pyrimidin-5-ylmethyl)benzenesulfonamide]",113.9% of control

# Same assay, conditions: compound 100 uM + rotenone (approximately 1.25 μM), two hour incubation
row,SMILES,POC (percent of control) HeLa
1,"Cc1ccc(S(=O)(=O)NCc2cnccn2)cc1 [Compound 16, 4-methyl-N-(pyrazin-2-ylmethyl)benzenesulfonamide]",102.3% of control
2,"O=S(=O)(NCc1cncnc1)c1ccccc1 [Compound 15, N-(pyrimidin-5-ylmethyl)benzenesulfonamide]",102.2% of control

# Test system: SkBr3 (breast cancer)
# Assay: as above
# Type: cell-based
# Conditions: Homo sapiens, SK-BR-3, 2 h; compound alone, 100 uM, two hour incubation, control DMSO; read-out: POC (percent of control) SkBr3
row,SMILES,activity at 100 µM [%]
1,"Cc1ccc(S(=O)(=O)NCc2cnccn2)cc1 [Compound 16, 4-methyl-N-(pyrazin-2-ylmethyl)benzenesulfonamide]",91.9
2,"O=S(=O)(NCc1cncnc1)c1ccccc1 [Compound 15, N-(pyrimidin-5-ylmethyl)benzenesulfonamide]",117

# Same assay, conditions: compound 100 uM + 2DG (about 10-20 mM), two hour incubation
row,SMILES,POC (percent of control) SkBr3
1,"Cc1ccc(S(=O)(=O)NCc2cnccn2)cc1 [Compound 16, 4-methyl-N-(pyrazin-2-ylmethyl)benzenesulfonamide]",81.4% of control
2,"O=S(=O)(NCc1cncnc1)c1ccccc1 [Compound 15, N-(pyrimidin-5-ylmethyl)benzenesulfonamide]",123.3% of control

# Same assay, conditions: compound 100 uM + rotenone (approximately 1.25 μM), two hour incubation
row,SMILES,POC (percent of control) SkBr3
1,"Cc1ccc(S(=O)(=O)NCc2cnccn2)cc1 [Compound 16, 4-methyl-N-(pyrazin-2-ylmethyl)benzenesulfonamide]",104% of control
2,"O=S(=O)(NCc1cncnc1)c1ccccc1 [Compound 15, N-(pyrimidin-5-ylmethyl)benzenesulfonamide]",93% of control

# Test system: MDA-MB (breast cancer)
# Assay: as above
# Type: cell-based
# Conditions: 2 h; compound alone, 100 uM, two hour incubation, control DMSO; read-out: POC (percent of control) MDA-MB
row,SMILES,activity at 100 µM [%]
1,"Cc1ccc(S(=O)(=O)NCc2cnccn2)cc1 [Compound 16, 4-methyl-N-(pyrazin-2-ylmethyl)benzenesulfonamide]",106
2,"O=S(=O)(NCc1cncnc1)c1ccccc1 [Compound 15, N-(pyrimidin-5-ylmethyl)benzenesulfonamide]",108

# Same assay, conditions: compound 100 uM + 2DG (about 10-20 mM), two hour incubation
row,SMILES,POC (percent of control) MDA-MB
1,"Cc1ccc(S(=O)(=O)NCc2cnccn2)cc1 [Compound 16, 4-methyl-N-(pyrazin-2-ylmethyl)benzenesulfonamide]",104.5% of control
2,"O=S(=O)(NCc1cncnc1)c1ccccc1 [Compound 15, N-(pyrimidin-5-ylmethyl)benzenesulfonamide]",91.2% of control

# Same assay, conditions: compound 100 uM + rotenone (approximately 1.25 μM), two hour incubation
row,SMILES,POC (percent of control) MDA-MB
1,"Cc1ccc(S(=O)(=O)NCc2cnccn2)cc1 [Compound 16, 4-methyl-N-(pyrazin-2-ylmethyl)benzenesulfonamide]",92.7% of control
2,"O=S(=O)(NCc1cncnc1)c1ccccc1 [Compound 15, N-(pyrimidin-5-ylmethyl)benzenesulfonamide]",90.8% of control

# Test system: BxPC3 (pancreatic cancer)
# Assay: as above
# Type: cell-based
# Conditions: Homo sapiens, BXPC-3, 2 h; compound alone, 100 uM, two hour incubation, control DMSO; read-out: POC (percent of control) BxPC3
row,SMILES,activity at 100 µM [%]
1,"Cc1ccc(S(=O)(=O)NCc2cnccn2)cc1 [Compound 16, 4-methyl-N-(pyrazin-2-ylmethyl)benzenesulfonamide]",103
2,"O=S(=O)(NCc1cncnc1)c1ccccc1 [Compound 15, N-(pyrimidin-5-ylmethyl)benzenesulfonamide]",98.8

# Same assay, conditions: compound 100 uM + 2DG (about 10-20 mM), two hour incubation
row,SMILES,POC (percent of control) BxPC3
1,"Cc1ccc(S(=O)(=O)NCc2cnccn2)cc1 [Compound 16, 4-methyl-N-(pyrazin-2-ylmethyl)benzenesulfonamide]",95.4% of control
2,"O=S(=O)(NCc1cncnc1)c1ccccc1 [Compound 15, N-(pyrimidin-5-ylmethyl)benzenesulfonamide]",70.8% of control

# Same assay, conditions: compound 100 uM + rotenone (approximately 1.25 μM), two hour incubation
row,SMILES,POC (percent of control) BxPC3
1,"Cc1ccc(S(=O)(=O)NCc2cnccn2)cc1 [Compound 16, 4-methyl-N-(pyrazin-2-ylmethyl)benzenesulfonamide]",72.7% of control
2,"O=S(=O)(NCc1cncnc1)c1ccccc1 [Compound 15, N-(pyrimidin-5-ylmethyl)benzenesulfonamide]",88.9% of control

# Test system: T47D (breast cancer)
# Assay: as above
# Type: cell-based
# Conditions: Homo sapiens, T47D, 2 h; compound alone, 100 uM, two hour incubation, control DMSO; read-out: POC (percent of control) T47D
row,SMILES,activity at 100 µM [%]
1,"Cc1ccc(S(=O)(=O)NCc2cnccn2)cc1 [Compound 16, 4-methyl-N-(pyrazin-2-ylmethyl)benzenesulfonamide]",91.1
2,"O=S(=O)(NCc1cncnc1)c1ccccc1 [Compound 15, N-(pyrimidin-5-ylmethyl)benzenesulfonamide]",89.6

# Same assay, conditions: compound 100 uM + 2DG (about 10-20 mM), two hour incubation
row,SMILES,POC (percent of control) T47D
1,"Cc1ccc(S(=O)(=O)NCc2cnccn2)cc1 [Compound 16, 4-methyl-N-(pyrazin-2-ylmethyl)benzenesulfonamide]",111.6% of control
2,"O=S(=O)(NCc1cncnc1)c1ccccc1 [Compound 15, N-(pyrimidin-5-ylmethyl)benzenesulfonamide]",82.5% of control

# Same assay, conditions: compound 100 uM + rotenone (approximately 1.25 μM), two hour incubation
row,SMILES,POC (percent of control) T47D
1,"Cc1ccc(S(=O)(=O)NCc2cnccn2)cc1 [Compound 16, 4-methyl-N-(pyrazin-2-ylmethyl)benzenesulfonamide]",99.3% of control
2,"O=S(=O)(NCc1cncnc1)c1ccccc1 [Compound 15, N-(pyrimidin-5-ylmethyl)benzenesulfonamide]",109.4% of control

# Test system: H293 (kidney cancer)
# Assay: as above
# Type: cell-based
# Conditions: 2 h; compound alone, 100 uM, two hour incubation, control DMSO; read-out: POC (percent of control) H293
row,SMILES,activity at 100 µM [%]
1,"Cc1ccc(S(=O)(=O)NCc2cnccn2)cc1 [Compound 16, 4-methyl-N-(pyrazin-2-ylmethyl)benzenesulfonamide]",80.1
2,"O=S(=O)(NCc1cncnc1)c1ccccc1 [Compound 15, N-(pyrimidin-5-ylmethyl)benzenesulfonamide]",99.8

# Same assay, conditions: compound 100 uM + 2DG (about 10-20 mM), two hour incubation
row,SMILES,POC (percent of control) H293
1,"Cc1ccc(S(=O)(=O)NCc2cnccn2)cc1 [Compound 16, 4-methyl-N-(pyrazin-2-ylmethyl)benzenesulfonamide]",80.7% of control
2,"O=S(=O)(NCc1cncnc1)c1ccccc1 [Compound 15, N-(pyrimidin-5-ylmethyl)benzenesulfonamide]",74.7% of control

# Same assay, conditions: compound 100 uM + rotenone (approximately 1.25 μM), two hour incubation
row,SMILES,POC (percent of control) H293
1,"Cc1ccc(S(=O)(=O)NCc2cnccn2)cc1 [Compound 16, 4-methyl-N-(pyrazin-2-ylmethyl)benzenesulfonamide]",81.6% of control
2,"O=S(=O)(NCc1cncnc1)c1ccccc1 [Compound 15, N-(pyrimidin-5-ylmethyl)benzenesulfonamide]",84.4% of control

# Test system: MCF10A (non-cancerous breast)
# Assay: as above
# Type: cell-based
# Conditions: Homo sapiens, MCF-10A, 2 h; compound alone, 100 uM, two hour incubation, control DMSO; read-out: POC (percent of control) MCF10A
row,SMILES,activity at 100 µM [%]
1,"Cc1ccc(S(=O)(=O)NCc2cnccn2)cc1 [Compound 16, 4-methyl-N-(pyrazin-2-ylmethyl)benzenesulfonamide]",113
2,"O=S(=O)(NCc1cncnc1)c1ccccc1 [Compound 15, N-(pyrimidin-5-ylmethyl)benzenesulfonamide]",105

# Same assay, conditions: compound 100 uM + 2DG (about 10-20 mM), two hour incubation
row,SMILES,POC (percent of control) MCF10A
1,"Cc1ccc(S(=O)(=O)NCc2cnccn2)cc1 [Compound 16, 4-methyl-N-(pyrazin-2-ylmethyl)benzenesulfonamide]",118.9% of control
2,"O=S(=O)(NCc1cncnc1)c1ccccc1 [Compound 15, N-(pyrimidin-5-ylmethyl)benzenesulfonamide]",122% of control

# Same assay, conditions: compound 100 uM + rotenone (approximately 1.25 μM), two hour incubation
row,SMILES,POC (percent of control) MCF10A
1,"Cc1ccc(S(=O)(=O)NCc2cnccn2)cc1 [Compound 16, 4-methyl-N-(pyrazin-2-ylmethyl)benzenesulfonamide]",86.2% of control
2,"O=S(=O)(NCc1cncnc1)c1ccccc1 [Compound 15, N-(pyrimidin-5-ylmethyl)benzenesulfonamide]",98.4% of control

# Test system: HDF (normal cells)
# Assay: as above
# Type: cell-based
# Conditions: 2 h; compound alone, 100 uM, two hour incubation, control DMSO; read-out: POC (percent of control) HDF
row,SMILES,activity at 100 µM [%]
1,"Cc1ccc(S(=O)(=O)NCc2cnccn2)cc1 [Compound 16, 4-methyl-N-(pyrazin-2-ylmethyl)benzenesulfonamide]",94.3
2,"O=S(=O)(NCc1cncnc1)c1ccccc1 [Compound 15, N-(pyrimidin-5-ylmethyl)benzenesulfonamide]",89.2

# Same assay, conditions: compound 100 uM + 2DG (about 10-20 mM), two hour incubation
row,SMILES,POC (percent of control) HDF
1,"Cc1ccc(S(=O)(=O)NCc2cnccn2)cc1 [Compound 16, 4-methyl-N-(pyrazin-2-ylmethyl)benzenesulfonamide]",95.6% of control
2,"O=S(=O)(NCc1cncnc1)c1ccccc1 [Compound 15, N-(pyrimidin-5-ylmethyl)benzenesulfonamide]",100.2% of control

# Same assay, conditions: compound 100 uM + rotenone (approximately 1.25 μM), two hour incubation
row,SMILES,POC (percent of control) HDF
1,"Cc1ccc(S(=O)(=O)NCc2cnccn2)cc1 [Compound 16, 4-methyl-N-(pyrazin-2-ylmethyl)benzenesulfonamide]",98.3% of control
2,"O=S(=O)(NCc1cncnc1)c1ccccc1 [Compound 15, N-(pyrimidin-5-ylmethyl)benzenesulfonamide]",91.1% of control

# Test system: MCF7 (breast cancer)
# Assay: as above
# Type: cell-based
# Conditions: Homo sapiens, MCF7, 2 h; compound alone, 100 uM, two hour incubation, control DMSO; read-out: POC (percent of control) MCF7
row,SMILES,activity at 100 µM [%]
1,"Cc1ccc(S(=O)(=O)NCc2cnccn2)cc1 [Compound 16, 4-methyl-N-(pyrazin-2-ylmethyl)benzenesulfonamide]",123
2,"O=S(=O)(NCc1cncnc1)c1ccccc1 [Compound 15, N-(pyrimidin-5-ylmethyl)benzenesulfonamide]",148

# Same assay, conditions: compound 100 uM + 2DG (about 10-20 mM), two hour incubation
row,SMILES,POC (percent of control) MCF7
1,"Cc1ccc(S(=O)(=O)NCc2cnccn2)cc1 [Compound 16, 4-methyl-N-(pyrazin-2-ylmethyl)benzenesulfonamide]",93.3% of control
2,"O=S(=O)(NCc1cncnc1)c1ccccc1 [Compound 15, N-(pyrimidin-5-ylmethyl)benzenesulfonamide]",103.4% of control

# Same assay, conditions: compound 100 uM + rotenone (approximately 1.25 μM), two hour incubation
row,SMILES,POC (percent of control) MCF7
1,"Cc1ccc(S(=O)(=O)NCc2cnccn2)cc1 [Compound 16, 4-methyl-N-(pyrazin-2-ylmethyl)benzenesulfonamide]",107.5% of control
2,"O=S(=O)(NCc1cncnc1)c1ccccc1 [Compound 15, N-(pyrimidin-5-ylmethyl)benzenesulfonamide]",96.4% of control
